Measurements reported in PMC7765952, “N-(Hydroxyalkyl) Derivatives of tris(1H-indol-3-yl)methylium Salts as Promising Antibacterial Agents: Synthesis and Biological Evaluation” (Pharmaceuticals, 2020).
Read-outs that look alike come from different tables or passages of the source.

Columns and labels:
K. pneumoniae ATCC 13883 = assay: MIC by microdilution, K. pneumoniae ATCC 13883; type: cell-based; conditions: Klebsiella pneumoniae, ATCC13883; K. pneumoniae ATCC 13883; read-out: MIC
Protocol: (§1) Compounds were tested against Gram-positive and Gram-negative bacteria, including sensitive or drug resistant strains from American Type Culture Collection (ATCC), as well as resistant clinical isolates from the culture collection of the Laboratory for Control of Hospital Infections (Sechenov University, Moscow, Russia). Collection cultures of Gram-positive bacteria: Staphylococcus aureus ATCC 25923, Staphylococcus aureus ATCC 3798, Staphylococcus aureus ATCC 700,699 and clinical isolates of Gram-positive bacteria: Staphylococcus aureus 5, Staphylococcus aureus 10, Staphylococcus aureus 100 KS, Staphylococcus epidermidis 533, Enterococcus faecium 569 and collection cultures of Gram-negative bacteria: Escherichia coli ATCC 25922, Klebsiella pneumoniae ATCC 13883, Salmonella cholerasuis ATCC 14,028 were used.
(§2) For the cultivation of the strains, various nutrient media were used: Trypticase Soy Agar BBL for Staphylococcus sp., E. coli, K. pneumoniae, S. cholerasuis and Columbia Agar Base BBL for the cultivation of Enterococcus sp. Cultures grown on appropriate nutrient media at 35 °C for 1 day were used to set up experiments. For determination of the antibacterial action Mueller-Hinton (Acumedia, Baltimore, MD, USA) liquid medium was used. The minimum inhibitory concentrations (MIC) were determined by the microdilution method in 96 well sterile plates in a cation-adjusted Müller-Hinton medium in accordance with the requirements of the Institute of Clinical and Laboratory Standards (CLSI/NCCLS). MIC was defined as the minimum drug concentration that completely prevents the growth of the test organism.

[1] = Determination of lipophilicity, LogPow by HPLC method; type: physicochemical; conditions: experimental, pH 7.4
Source text: We used the partition coefficient as an indicator of lipophilicity. The partition coefficient (P) is defined as the ratio of the equilibrium solute concentrations in a two-phase system of immiscible solvents. The most common in practice is the octanol-water (Pow) system. The partition coefficient is usually represented as a decimal logarithm (LogPow). It can be measured in several ways. A most advanced, accurate, and less time-consuming is the HPLC method for determining Pow using high-performance liquid chromatography. HPLC is performed on an analytical column with a solid phase containing long hydrocarbon chains chemically bound to silica gel. The retention time on such a column (Rt) is directly related to the partition coefficient Pow. The most informative in our case was the partition coefficient at a physiological pH value of 7.4. It was at this pH that the main biological experiments with the studied substances were carried out, namely tests of antimicrobial activity and cytotoxicity. HPLC was performed on a Shimadzu LC-20AD system using Kromasil-100-5-C18 (Akzo-Nobel) column, 4.6 × 250 mm, 20 °C temperature, UV detection, mobile phase A—0.2% HCOONH4), mobile phase B-MeCN, (pH 7.4), fl-1 mL/min., loop 20 mkl. After calibration using substances with a known LogPow, it is possible to recalculate Rt to LogPow. For calibration, we used aniline (LogPow 0.9), p-chloroaniline (LogPow 1.8), diphenylamine (LogPow 3.4), triphenylamine (LogPow 5.7).

S. aureus 10 = assay: MIC by microdilution, S. aureus 10; type: cell-based; conditions: Staphylococcus aureus; clinical isolate S. aureus 10, sensitive to all antibiotics; read-out: MIC
Protocol: as §1, §2

S. epidermidis 533 = assay: MIC by microdilution, S. epidermidis 533; type: cell-based; conditions: Staphylococcus epidermidis; S. epidermidis 533, resistant to gentamicin; read-out: MIC
Protocol: as §1, §2

E. faecium 569 = assay: MIC by microdilution, E. faecium 569; type: cell-based, Enterococcus faecium; conditions: E. faecium 569, resistant to cefuroxime, clindamycin, gentamycin, vancomycin, doxycycline
Protocol: as §1, §2

[2] = test system: S. cholerasuis ATCC 14028; assay: MIC by microdilution, S. cholerasuis ATCC 14028; type: cell-based; conditions: Salmonella, ATCC14028; S. cholerasuis ATCC 14028; read-out: MIC
Protocol: as §1, §2

S. aureus 100 KC = assay: MIC by microdilution, S. aureus 100 KC; type: cell-based; conditions: Staphylococcus aureus; S. aureus 100 KC, methicillin resistant (MRSA) clinical isolate; read-out: MIC
Protocol: as §1, §2

S. aureus ATCC 25923 = assay: MIC by microdilution, S. aureus ATCC 25923; type: cell-based; conditions: Staphylococcus aureus, ATCC25923; S. aureus ATCC 25923, sensitive to all antibiotics; read-out: MIC
Protocol: as §1, §2

S. aureus 5 = assay: MIC by microdilution, S. aureus 5; type: cell-based; conditions: Staphylococcus aureus; S. aureus 5, methicillin resistant (MRSA) clinical isolate; read-out: MIC
Protocol: as §1, §2

S. aureus ATCC 3798 = assay: MIC by microdilution, S. aureus ATCC 3798; type: cell-based; conditions: Staphylococcus aureus, ATCC3798; S. aureus ATCC 3798, multiresistant incl. ciprofloxacin, levofloxacin; read-out: MIC
Protocol: as §1, §2

S. aureus ATCC 700699 = assay: MIC by microdilution, S. aureus ATCC 700699; type: cell-based, Staphylococcus aureus; conditions: S. aureus ATCC 700699, resistant to levofloxacin
Protocol: as §1, §2

P. aeruginosa ATCC 27853 = assay: MIC by microdilution, P. aeruginosa ATCC 27853; type: cell-based; conditions: Pseudomonas aeruginosa, ATCC27853; P. aeruginosa ATCC 27853; read-out: MIC
Protocol: as §2

E. coli ATCC 25922 = assay: MIC by microdilution, E. coli ATCC 25922; type: cell-based, Escherichia coli; conditions: E. coli ATCC 25922
Protocol: as §1, §2

[3] = test system: Gram-positive and Gram-negative bacteria; assay: Antibacterial activity in vitro, strain panel in general; type: cell-based; conditions: general statement over the strain panel
Protocol: as §1, §2

[4] = Enterococcus faecium, read-out: MIC
[5] = Staphylococcus aureus, ATCC700699, read-out: MIC
[6] = Escherichia coli, ATCC25922, read-out: MIC

Compound `OCCn1cc([C+](c2cn(CCO)c3ccccc23)c2cn(CCO)c3ccccc23)c2ccccc21.[Cl-]` [8a, tris(1-(2-Hydroxyethyl)-1H-indol-3-yl)methylium chloride] has an MIC (K. pneumoniae ATCC 13883) greater than 64 µg/mL, a LogPow [1] of 1.15 and an MIC (S. aureus 10) of 16 µg/mL. The MIC (S. epidermidis 533) was 32 µg/mL, the MIC (E. faecium 569; [4]) was greater than 64 µg/mL and the MIC [2] was greater than 64 µg/mL. It also gave an MIC (S. aureus 100 KC) of 64 µg/mL, an MIC (S. aureus ATCC 25923) of 32 µg/mL and an MIC (S. aureus 5) of 64 µg/mL. For the same compound, the MIC (S. aureus ATCC 3798) was 32 µg/mL, the MIC (S. aureus ATCC 700699; [5]) was 32 µg/mL and the MIC (P. aeruginosa ATCC 27853) was greater than 64 µg/mL. The MIC (E. coli ATCC 25922; [6]) was 16 µg/mL.

Compound `OCCCn1cc([C+](c2cn(CCCO)c3ccccc23)c2cn(CCCO)c3ccccc23)c2ccccc21.[Cl-]` [8b, tris(1-(3-Hydroxypropyl)-1H-indol-3-yl)methylium chloride] has an MIC (K. pneumoniae ATCC 13883) greater than 64 µg/mL, a LogPow [1] of 1.2 and an MIC (S. aureus 10) of 8 µg/mL. The MIC (S. epidermidis 533) was 32 µg/mL, the MIC (E. faecium 569; [4]) was 32 µg/mL and the MIC [2] was greater than 64 µg/mL. The MIC (S. aureus 100 KC) was 16 µg/mL, the MIC (S. aureus ATCC 25923) was 32 µg/mL and the MIC (S. aureus 5) was 16 µg/mL. It also gave an MIC (S. aureus ATCC 3798) of 16 µg/mL, an MIC (S. aureus ATCC 700699; [5]) greater than 64 µg/mL and an MIC (P. aeruginosa ATCC 27853) greater than 64 µg/mL. The MIC (E. coli ATCC 25922; [6]) was greater than 64 µg/mL.

In the case of `OCCCCn1cc([C+](c2cn(CCCCO)c3ccccc23)c2cn(CCCCO)c3ccccc23)c2ccccc21.[Cl-]` [8c, tris(1-(4-Hydroxybutyl)-1H-indol-3-yl)methylium chloride], the MIC (K. pneumoniae ATCC 13883) was 8 µg/mL, the LogPow [1] was 2.9 and the MIC (S. aureus 10) was 8 µg/mL. The MIC (S. epidermidis 533) was 16 µg/mL, the MIC (E. faecium 569; [4]) was greater than 64 µg/mL and the MIC [2] was greater than 64 µg/mL. It also gave an MIC (S. aureus 100 KC) of 16 µg/mL, an MIC (S. aureus ATCC 25923) of 16 µg/mL and an MIC (S. aureus 5) of 8 µg/mL. It also gave an MIC (S. aureus ATCC 3798) of 16 µg/mL, an MIC (S. aureus ATCC 700699; [5]) of 8 µg/mL and an MIC (P. aeruginosa ATCC 27853) greater than 64 µg/mL. The MIC (E. coli ATCC 25922; [6]) was 32 µg/mL.

Work on `OCCCCCn1cc([C+](c2cn(CCCCCO)c3ccccc23)c2cn(CCCCCO)c3ccccc23)c2ccccc21.[Cl-]` [8d, tris(1-(5-Hydroxypentyl)-1H-indol-3-yl)methylium chloride] yielded an MIC (K. pneumoniae ATCC 13883) of 2 µg/mL, a LogPow [1] of 4 and an MIC (S. aureus 10) of 1 µg/mL. For the same compound, the MIC (S. epidermidis 533) was 1 µg/mL, the MIC (E. faecium 569; [4]) was 8 µg/mL and the MIC [2] was greater than 64 µg/mL. For the same compound, the MIC (S. aureus 100 KC) was 2 µg/mL, the MIC (S. aureus ATCC 25923) was 2 µg/mL and the MIC (S. aureus 5) was 4 µg/mL. For the same compound, the MIC (S. aureus ATCC 3798) was 2 µg/mL, the MIC (S. aureus ATCC 700699) was “active” and the MIC (S. aureus ATCC 700699; [5]) was 2 µg/mL. For the same compound, the MIC (P. aeruginosa ATCC 27853) was greater than 64 µg/mL, the MIC (E. coli ATCC 25922) was “moderate level of activity” and the MIC (E. coli ATCC 25922; [6]) was 8 µg/mL. The “MIC (antibacterial activity, strains not specified)” value [3] was “highly active against Gram-positive bacteria”.

Work on `OCCCCCCn1cc([C+](c2cn(CCCCCCO)c3ccccc23)c2cn(CCCCCCO)c3ccccc23)c2ccccc21.[Cl-]` [8e, tris(1-(6-hydroxyhexyl)-1H-indol-3-yl)methylium chloride] yielded an MIC (K. pneumoniae ATCC 13883) of 8 µg/mL, a LogPow [1] of 5.4 and an MIC (S. aureus 10) of 0.5 µg/mL. It also gave an MIC (S. epidermidis 533) of 0.5 µg/mL, an MIC (E. faecium 569) greater than 64 µg/mL and an MIC (E. faecium 569; [4]) greater than 64 µg/mL. The MIC [2] was greater than 64 µg/mL, the MIC (S. aureus 100 KC) was 0.5 µg/mL and the MIC (S. aureus ATCC 25923) was 0.5 µg/mL. For the same compound, the MIC (S. aureus 5) was 0.5 µg/mL, the MIC (S. aureus ATCC 3798) was 0.5 µg/mL and the MIC (S. aureus ATCC 700699) was “active”. For the same compound, the MIC (S. aureus ATCC 700699; [5]) was 0.5 µg/mL, the MIC (P. aeruginosa ATCC 27853) was greater than 64 µg/mL and the MIC (E. coli ATCC 25922) was “moderate level of activity”. The MIC (E. coli ATCC 25922; [6]) was 8 µg/mL, the “MIC (antibacterial activity, strains not specified)” value [3] was “highly active against Gram-positive bacteria” and the MIC ([3]; read-out: MIC (antibacterial activity, strains not specified)) was 0.5 µg/mL.
